The record followed here is patent publication US11845751B2, “Triazolotriazine derivatives as A2A receptor antagonists” (ZHEJIANG VIMGREEN PHARMACEUTICALS, LTD., priority 2018, dated 2023).

A word on the IC50: it is the concentration that inhibits the measured activity by half.

T1 sequence (P29274 whole entry): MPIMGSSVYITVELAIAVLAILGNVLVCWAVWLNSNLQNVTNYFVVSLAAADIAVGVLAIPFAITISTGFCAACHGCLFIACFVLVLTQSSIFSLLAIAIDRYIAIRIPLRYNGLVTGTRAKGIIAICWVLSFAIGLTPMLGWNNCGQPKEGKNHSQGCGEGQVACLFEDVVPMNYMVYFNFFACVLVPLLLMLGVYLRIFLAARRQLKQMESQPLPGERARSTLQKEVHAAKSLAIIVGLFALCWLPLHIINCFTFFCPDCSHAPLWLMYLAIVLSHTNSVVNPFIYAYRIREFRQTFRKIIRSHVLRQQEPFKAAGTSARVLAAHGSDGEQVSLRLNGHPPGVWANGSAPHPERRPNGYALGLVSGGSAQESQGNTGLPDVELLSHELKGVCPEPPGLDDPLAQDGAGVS

This test has as its target T1, A2AR (hADORA2A-HEK293 cells) (Homo sapiens, UniProt P29274).
T1 construct: expressed in transfected cells; host or cells: HEK293 (hADORA2A-HEK293)
In words: functional cAMP production assay: NECA stimulation of cAMP production and its inhibition by A2AR antagonists. As to conditions: A2AR-expressing HEK293 cells (hADORA2A-HEK293); NECA at EC80; TR-FRET cAMP readout; read-out: A2AR Potency (IC50, inhibition of NECA-stimulated cAMP production). Type of test: cell-based. How it is done:
The antagonistic activities of the triazolotriazine derivatives of the present invention were measured in a functional cAMP production assay. The assay consists of NECA stimulation of cAMP production and its inhibition by A2AR antagonists in A2AR-expressing HEK293 cells (hADORA2A-HEK293). All cells were cultured in complete medium at 37° C. in 5% CO2. The cells were detached with pancreatin and collected at 200 g for 5 min. After resuspending the cells in fresh complete medium, the cell viability is counted using the trypan blue exclusion method. […] After the cells were diluted with Hank's buffered saline solution containing HEPES (5 mM), BSA stabilizer (0.1%) and […] Rolipram (10 μM), cells were loaded into white opaque 384-well plates (˜500 cells/well, 10 μl/well) and incubated with test compound at a suitable concentration range (11 concentrations) for 20 min at room temperature. Then the A2A receptor agonist NECA (final concentration=EC80, which was determined in the same experiment slightly earlier) was added to the sample and the mixture was incubated again for 30 min at 37° C. […] The inhibition rate (%) was calculated according to the following formula. The IC50 values were calculated from concentration-inhibition (%) curves after log transformation.
Consider `Nc1nc(NCCc2ccc(NC(=O)CCN3CCC3)cc2)nc2nc(-c3ccco3)nn12` [Example 313, N-(4-(2-((7-Amino-2-(furan-2-yl)-[1,2,4]triazolo[1,5-a][1,3,5]triazin-5-yl)amino)ethyl)-phenyl)-3-(azetidin-1-yl)propanamide], for which the IC50 was found to be 13.8 nM.

In the case of `Nc1nc(NCCc2ccc(OCCOCC(F)(F)F)cc2)nc2nc(-c3ccco3)nn12` [Example 314, 2-(Furan-2-yl)-N5-(4-(2-(2,2,2-trifluoroethoxy)ethoxy)phenethyl)-[1,2,4]triazolo[1,5-a][1,3,5]triazine-5,7-diamine], the IC50 came to 15.4 nM.

As to `Nc1nc(NCCc2ccc(NCCN3CCOCC3)cc2)nc2nc(-c3ccco3)nn12` [Example 318, 2-(Furan-2-yl)-N5-(4-((2-morpholinoethyl)amino)phenethyl)-[1,2,4]triazolo[1,5-a][1,3,5]triazine-5,7-diamine], the IC50 was 11.1 nM.

`Nc1nc(NCCc2ccc(NC(=O)CN3CCOCC3)cc2)nc2nc(-c3ccco3)nn12` [Example 320, N-(4-(2-((7-Amino-2-(furan-2-yl)-[1,2,4]triazolo[1,5-a][1,3,5]triazin-5-yl)amino)ethyl)-phenyl)-2-morpholinoacetamide]: the concentration for half-maximal inhibition (IC50) came out at 11.5 nM.

On to `CN1CCN(CC(=O)Nc2ccc(CCNc3nc(N)n4nc(-c5ccco5)nc4n3)cc2)CC1` [Example 321, N-(4-(2-((7-Amino-2-(furan-2-yl)-[1,2,4]triazolo[1,5-a][1,3,5]triazin-5-yl)amino)ethyl)-phenyl)-2-(4-methylpiperazin-1-yl)acetamide], for which the IC50 came out at 40.7 nM.

Turning to `CC(C)(C)C(=O)Nc1ccc(CCNc2nc(N)n3nc(-c4ccco4)nc3n2)cc1` [Example 324, N-(4-(2-((7-Amino-2-(furan-2-yl)-[1,2,4]triazolo[1,5-a][1,3,5]triazin-5-yl)amino)ethyl)-phenyl)pivalamide], the 50% inhibitory concentration (IC50) was found to be 10.8 nM.

For the compound `CC(C)(CO)C(=O)Nc1ccc(CCNc2nc(N)n3nc(-c4ccco4)nc3n2)cc1` [Example 325, N-(4-(2-((7-Amino-2-(furan-2-yl)-[1,2,4]triazolo[1,5-a][1,3,5]triazin-5-yl)amino)ethyl)-phenyl)-3-hydroxy-2,2-dimethylpropanamide], the IC50 turned out to be 11.9 nM.

As to `CC(C)(O)C(=O)Nc1ccc(CCNc2nc(N)n3nc(-c4ccco4)nc3n2)cc1` [Example 326, N-(4-(2-((7-Amino-2-(furan-2-yl)-[1,2,4]triazolo[1,5-a][1,3,5]triazin-5-yl)amino)ethyl)-phenyl)-2-hydroxy-2-methylpropanamide], the concentration for half-maximal inhibition (IC50) worked out at 10.7 nM.
